Laboratory results reported in PMC9147323, “Phytochemical content, especially spermidine derivatives, presenting antioxidant and antilipoxygenase activities in Thai bee pollens” (PeerJ, 2022).
Several values for one entry are separate records, joined by “and”; a condition that tells them apart may be missing. Equal entries are not always repeated. Marks after values point to notes of the source that are not given here.

What was measured:
[1] = DPPH free radical scavenging activity assay; conditions: mean ± 1 SD
Description: The potential of the partitioned extracts was determined as previously described ([Khongkarat et al., 2020]). Five different concentrations of each sample were prepared in DMSO. […] The absorbance was measured at a wavelength of 517 nm ([…]) using a microplate reader. Ascorbic acid (vitamin C) was used as the standard reference. Each assay was performed in triplicate. The free radical scavenging activity was calculated from Eq. (1): (1) % DPPH radical scavenging activity=A-B/A×100, where A is the […] the negative control and B is the […] of the treatment.

[2] = ABTS radical scavenging activity / Trolox equivalent antioxidant capacity (TEAC); conditions: for ABTS EC50: mean ± 1 SD; for ABTS (µmol TE/g): fractions after SiG60-CC and HPLC, mean ± 1SD
[3] = Ferric reducing antioxidant power (FRAP); conditions: fractions after SiG60-CC and HPLC; mean ± 1SD
Description: The FRAP assay was performed as previously described ([Sun et al., 2017]). The FRAP reagent was freshly prepared by mixing 100 mL of 300 mM acetate buffer (pH 3.6), 10 mL of 10 mM 2,4,6-tris(2pyridyl)-s-triazine solution in 40 mM hydrochloric acid, and 10 mL of 20 mM ferric chloride solution. Later, 100 µL of the sample at a desired concentration was added to three mL of the FRAP reagent and incubated at 37 °C in a water bath for 6 min. The absorbance was measured at a wavelength of 593 nm. Aqueous solutions of ferrous sulfate (0–2,000 µM) were used to establish the standard graph and the reducing capacity was expressed as µmole of Fe^2+/g extract. Each assay was performed in triplicate.

LOX from soybean = target: T1, LOX from soybean (Glycine max, UniProt P08170); test: In vitro LOXI activity; conditions: mean ± 1 SD
T1 sequence (P08170 1-839): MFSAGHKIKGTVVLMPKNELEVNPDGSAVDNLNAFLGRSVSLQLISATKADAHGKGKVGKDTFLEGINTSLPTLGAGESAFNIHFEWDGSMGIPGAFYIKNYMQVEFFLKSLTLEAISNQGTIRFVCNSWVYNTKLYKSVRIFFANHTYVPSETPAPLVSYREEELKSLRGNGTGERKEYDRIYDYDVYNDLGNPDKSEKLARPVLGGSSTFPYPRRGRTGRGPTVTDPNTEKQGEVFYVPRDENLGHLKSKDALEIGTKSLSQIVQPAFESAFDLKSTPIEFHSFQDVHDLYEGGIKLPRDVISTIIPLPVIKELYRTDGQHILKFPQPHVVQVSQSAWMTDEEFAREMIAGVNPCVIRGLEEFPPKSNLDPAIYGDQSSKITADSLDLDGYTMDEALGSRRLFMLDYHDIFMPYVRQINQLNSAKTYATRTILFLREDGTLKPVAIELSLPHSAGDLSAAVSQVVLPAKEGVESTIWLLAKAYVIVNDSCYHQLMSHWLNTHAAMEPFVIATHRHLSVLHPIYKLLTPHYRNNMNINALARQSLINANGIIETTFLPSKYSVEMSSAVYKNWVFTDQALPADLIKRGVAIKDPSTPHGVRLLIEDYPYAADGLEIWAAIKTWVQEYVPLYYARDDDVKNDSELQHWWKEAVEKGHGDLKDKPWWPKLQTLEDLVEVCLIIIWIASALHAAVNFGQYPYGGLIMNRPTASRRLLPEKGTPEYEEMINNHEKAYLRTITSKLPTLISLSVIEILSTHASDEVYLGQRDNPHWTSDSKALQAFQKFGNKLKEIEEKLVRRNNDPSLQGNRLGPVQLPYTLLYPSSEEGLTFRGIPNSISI

DPPH EC50 ([1]; listed as ascorbic acid) [µg/mL] | ABTS EC50 ([2]; listed as ascorbic acid) [µg/mL] | SMILES | DPPH EC50 [1] | ABTS EC50 [2] | ABTS (µmol TE/g) [2] | FRAP (µmol Fe^2+/g) [3] | LOXI IC50 (LOX from soybean)
68.00 ± 1.13 | 44.54 ± 0.19 | O=C1O[C@H]([C@@H](O)CO)C(O)=C1O [Ascorbic acid, reference compound] | 68.00 ± 1.13^a µg/mL and 68.00 ± 1.13^b µg/mL | 44.54 ± 0.19^a µg/mL and 44.54 ± 0.19^c µg/mL and 44.54 ± 0.19^b µg/mL | – | – | –
– | – | COc1cc(C=CC(=O)NCCCCN(CCCNC(=O)C=Cc2ccc(O)c(OC)c2)C(=O)C=Cc2ccc(O)c(OC)c2)ccc1O [DCMMBP3-1, N^1, N^5, N^10-triferuloyl spermidine] | 53.05 ± 2.60^a µg/mL | 25.38 ± 0.67^a µg/mL | 2,527.63 ± 7.99^a µmol TE/g | 3,477.33 ± 52.07^a µmol Fe^2+/g | 11.31 ± 0.46^a µg/mL
– | – | COc1cc(/C=C/C(=O)NCCCCN(CCCNC(=O)/C=C/c2ccc(O)c(OC)c2)C(=O)/C=C/c2ccc(O)c(OC)c2)ccc1O [DCMMBP3-2, N^1, N^5, N^10-tri-(E, E, E)-feruloyl spermidine] | 57.7 ± 2.77^a µg/mL | 28.29 ± 1.05^b µg/mL | 2,339.16 ± 34.62^b µmol TE/g | 3,091.78 ± 44.48^b µmol Fe^2+/g | 11.57 ± 0.93^a µg/mL
